Common to all, as to format: biochemical
Assay [1] addresses T1, PI3K alfa (Homo sapiens, UniProt P42336).
T1 construct: for the p110-a subunit (with a deletion of the first 20 amino acids); His tag (C); made in house; host or cells: baculovirus; Tn5 (Trichoplusia ni) or TiniPro insect cells
As to the kind of experiment: PI3 kinase assay (Kinase-Glo luminescence), PI3K alfa. As for the experimental part: (§1) In a more preferred assay, the kinase reaction is performed in a final volume of 10 μL per well of a low volume non binding CORNING, 384 well black plate (Cat. No. #3676). The final concentrations of ATP and phosphatidyl inositol (PI) in the assay are 1 μM and 10 μg/mL respectively. The reaction is started by the addition of ATP.
(§2) The components of the assay are added per well as follows:
(§3) 50 nL test compounds in 90% DMSO per well, in columns 1-20, 8 concentrations (1/3 and 1/3.33 serial dilution step) in single. • Low control: 50 nL of 90% DMSO in half the wells of columns 23-24 (0.45% in final). • High control: 50 nL of reference compound (e.g. compound of Example 7 in WO 2006/122806, incorporated by reference hereinin that regard) in the other half of columns 23-24 (2.5 μM in final). • Standard: 50 nL of reference compound as just mentioned diluted as the test compounds in columns 21-22 • 20 mL ‘buffer’ are prepared per assay: • 200 μL of 1M TRIS HCl pH7.5 (10 mM in final) • 60 μL of 1M MgCl2 (3 mM in final) • 500 μL of 2M NaCl (50 mM in final) • 100 μL of 10% CHAPS (0.05% in final) • 200 μL of 100 mM DTT (1 mM in final) • 18.94 mL of nanopure water • 10 mL ‘PI’ are prepared per assay: • 200 μL of 1 mg/ml L-alpha-Phosphatidylinositol (Liver Bovine, Avanti Polar Lipids Cat. No. 840042C MW=909.12) prepared in 3% OctylGlucoside (10 μg/ml in final) • 9.8 mL of ‘buffer’ • 10 mL ‘ATP’ are prepared per assay: • 6.7 μL of 3 mM stock of ATP giving a final concentration of 1 μM per well • 10 mL of ‘buffer’ • 2.5 mL of each PI3K construct are prepared per assay in ‘PI’ with the following final concentration : • 10 nM PI3K alfa B-1075 • 25 nM beta BV-949 • 10 nM delta BV-1060 • 150 nM gamma BV-950 • 5 μL of ‘PI/PI3K’ are added per well. • 5 μl ‘ATP’ are added per well to start the reaction. • The plates are then incubated at room temperature for 60 minutes (alfa, beta, delta) or 120 minutes (gamma). • The reaction is terminated by the addition of 10 μL Kinase-Glo (Promega Cat. No. #6714). • The assay plates are read after 10 minutes in Synergy 2 reader (BioTek, Vermont USA) with an integration time of 100 milliseconds and sensitivity set to 191. • Output : The High control is around 60'000 counts and the Low control is 30'000 or lower • This luminescence assay gives a useful Z′ ratio between 0.4 and 0.7
(§4) […] is determined by a four parameter curve fitting routine that comes aloneg with “excel fit”. A 4 Parameter logistic equation is used to calculate IC50 values (IDBS XLfit) of the percentage inhibition of each compound at 8 concentrations (usually 10, 3.0, 1.0, 0.3, 0.1, 0.030, 0.010 and […]). Alternatively, IC50 values are calculated using idbsXLfit model 204, which is a 4 parameter logistic model.
(§5) Testing with the following kinases in the test system mentioned above, with the kinases given in the following tables, the following IC 50 data can be obtained: […]
(In general: Kinase-Glo measures the ATP left after a reaction by luminescence.)

Assay [2] addresses T2, PI3K beta (Homo sapiens, UniProt P42338).
T2 construct: for the full-length p110-b subunit are generated and fused by overlapping PCR; His tag (C); made in house; host or cells: baculovirus; Tn5 (Trichoplusia ni) or TiniPro insect cells
As to the kind of experiment: PI3 kinase assay (Kinase-Glo luminescence), PI3K beta. The note with it: Enzymatic Data; read-out: PI3K beta IC50 [umol]. As for the experimental part: as §1, §2, §3, §4, §5

For assay [3], the target named is T3, PI3K delta (Homo sapiens, UniProt O00329).
T3 construct: for the full-length p110-d subunit are generated and fused by overlapping PCR; His tag (C); made in house; host or cells: baculovirus; Tn5 (Trichoplusia ni) or TiniPro insect cells
As to the kind of experiment: PI3 kinase assay (Kinase-Glo luminescence), PI3K delta. To be noted: Enzymatic Data; read-out: PI3K delta IC50 [umol]. As for the experimental part:
as §1, §2, §3, §4, §5

In assay [4] the target is T4, PI3K gamma (Homo sapiens, UniProt P48736).
T4 construct: PI3Kγ BV-950 p110g(D144aa)-C-Term His Tag; His tag (C); made in house; host or cells: construct from the Roger Williams lab (MRC LMB) in pVL1393; baculovirus; Tn5 (Trichoplusia ni) or TiniPro insect cells
As to the kind of experiment: PI3 kinase assay (Kinase-Glo luminescence), PI3K gamma. The note with it: Enzymatic Data; read-out: PI3K gamma IC50 [umol]. As for the experimental part:
as §1, §2, §4

Setting [5] is: Enzymatic Data, read-out: PI3K alfa IC50 [umol].

Like-named read-outs stand apart in the source and are kept apart here. A value given as a limit tells only on which side of the number the result lay.

T4 sequence (P48736 144-1102 limits assumed): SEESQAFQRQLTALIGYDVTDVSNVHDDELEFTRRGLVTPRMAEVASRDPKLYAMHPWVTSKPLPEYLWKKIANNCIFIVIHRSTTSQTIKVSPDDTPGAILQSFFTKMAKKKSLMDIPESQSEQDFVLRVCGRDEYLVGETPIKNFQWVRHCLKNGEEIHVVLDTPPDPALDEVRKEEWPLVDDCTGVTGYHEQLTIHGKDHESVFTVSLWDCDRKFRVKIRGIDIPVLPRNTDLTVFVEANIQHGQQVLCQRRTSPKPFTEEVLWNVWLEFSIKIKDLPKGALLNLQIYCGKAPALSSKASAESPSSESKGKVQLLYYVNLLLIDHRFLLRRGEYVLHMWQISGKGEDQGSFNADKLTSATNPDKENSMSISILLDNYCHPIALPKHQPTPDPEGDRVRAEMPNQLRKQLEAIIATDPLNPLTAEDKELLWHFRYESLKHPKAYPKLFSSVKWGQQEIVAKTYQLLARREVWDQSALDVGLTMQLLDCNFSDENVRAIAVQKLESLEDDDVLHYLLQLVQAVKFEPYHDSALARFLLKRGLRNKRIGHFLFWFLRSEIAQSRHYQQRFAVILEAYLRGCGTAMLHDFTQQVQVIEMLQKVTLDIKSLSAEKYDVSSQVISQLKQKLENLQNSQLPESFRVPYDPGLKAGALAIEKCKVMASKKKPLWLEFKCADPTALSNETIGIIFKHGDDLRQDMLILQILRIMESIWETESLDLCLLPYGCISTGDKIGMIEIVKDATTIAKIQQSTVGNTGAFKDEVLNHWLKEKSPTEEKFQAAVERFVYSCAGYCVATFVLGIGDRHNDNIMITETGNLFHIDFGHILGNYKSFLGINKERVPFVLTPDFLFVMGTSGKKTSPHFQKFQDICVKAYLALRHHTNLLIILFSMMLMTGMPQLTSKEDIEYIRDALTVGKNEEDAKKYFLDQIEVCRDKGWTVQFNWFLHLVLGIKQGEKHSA
T3 sequence (O00329 with tags, fused parts or gaps limits assumed): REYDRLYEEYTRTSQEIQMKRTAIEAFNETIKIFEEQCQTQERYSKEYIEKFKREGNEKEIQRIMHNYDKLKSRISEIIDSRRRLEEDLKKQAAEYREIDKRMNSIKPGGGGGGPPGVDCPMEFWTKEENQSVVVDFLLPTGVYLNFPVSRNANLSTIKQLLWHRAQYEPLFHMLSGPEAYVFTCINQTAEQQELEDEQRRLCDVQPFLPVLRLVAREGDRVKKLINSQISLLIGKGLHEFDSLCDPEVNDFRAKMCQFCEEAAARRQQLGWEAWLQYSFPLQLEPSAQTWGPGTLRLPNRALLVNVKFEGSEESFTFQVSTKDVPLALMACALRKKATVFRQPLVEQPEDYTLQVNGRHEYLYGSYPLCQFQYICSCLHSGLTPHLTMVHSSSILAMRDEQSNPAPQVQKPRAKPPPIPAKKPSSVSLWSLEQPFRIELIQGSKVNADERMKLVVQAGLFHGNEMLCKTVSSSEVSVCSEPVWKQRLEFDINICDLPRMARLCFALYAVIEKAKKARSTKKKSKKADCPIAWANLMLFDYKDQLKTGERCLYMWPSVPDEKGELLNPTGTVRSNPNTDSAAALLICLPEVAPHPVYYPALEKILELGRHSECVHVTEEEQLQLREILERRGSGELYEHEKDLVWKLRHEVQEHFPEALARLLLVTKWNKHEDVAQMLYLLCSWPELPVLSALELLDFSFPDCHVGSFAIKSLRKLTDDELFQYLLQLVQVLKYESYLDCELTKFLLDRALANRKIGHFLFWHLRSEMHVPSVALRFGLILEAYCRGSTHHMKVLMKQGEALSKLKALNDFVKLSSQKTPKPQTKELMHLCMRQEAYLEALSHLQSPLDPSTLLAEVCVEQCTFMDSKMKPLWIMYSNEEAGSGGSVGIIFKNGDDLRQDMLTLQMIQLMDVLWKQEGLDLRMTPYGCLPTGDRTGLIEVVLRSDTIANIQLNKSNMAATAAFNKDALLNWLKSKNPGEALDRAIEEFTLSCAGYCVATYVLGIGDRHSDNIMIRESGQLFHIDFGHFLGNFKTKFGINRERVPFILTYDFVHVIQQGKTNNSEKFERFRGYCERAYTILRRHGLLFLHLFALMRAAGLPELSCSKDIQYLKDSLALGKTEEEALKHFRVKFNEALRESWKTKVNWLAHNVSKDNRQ
T2 sequence (P42338 with tags, fused parts or gaps limits assumed): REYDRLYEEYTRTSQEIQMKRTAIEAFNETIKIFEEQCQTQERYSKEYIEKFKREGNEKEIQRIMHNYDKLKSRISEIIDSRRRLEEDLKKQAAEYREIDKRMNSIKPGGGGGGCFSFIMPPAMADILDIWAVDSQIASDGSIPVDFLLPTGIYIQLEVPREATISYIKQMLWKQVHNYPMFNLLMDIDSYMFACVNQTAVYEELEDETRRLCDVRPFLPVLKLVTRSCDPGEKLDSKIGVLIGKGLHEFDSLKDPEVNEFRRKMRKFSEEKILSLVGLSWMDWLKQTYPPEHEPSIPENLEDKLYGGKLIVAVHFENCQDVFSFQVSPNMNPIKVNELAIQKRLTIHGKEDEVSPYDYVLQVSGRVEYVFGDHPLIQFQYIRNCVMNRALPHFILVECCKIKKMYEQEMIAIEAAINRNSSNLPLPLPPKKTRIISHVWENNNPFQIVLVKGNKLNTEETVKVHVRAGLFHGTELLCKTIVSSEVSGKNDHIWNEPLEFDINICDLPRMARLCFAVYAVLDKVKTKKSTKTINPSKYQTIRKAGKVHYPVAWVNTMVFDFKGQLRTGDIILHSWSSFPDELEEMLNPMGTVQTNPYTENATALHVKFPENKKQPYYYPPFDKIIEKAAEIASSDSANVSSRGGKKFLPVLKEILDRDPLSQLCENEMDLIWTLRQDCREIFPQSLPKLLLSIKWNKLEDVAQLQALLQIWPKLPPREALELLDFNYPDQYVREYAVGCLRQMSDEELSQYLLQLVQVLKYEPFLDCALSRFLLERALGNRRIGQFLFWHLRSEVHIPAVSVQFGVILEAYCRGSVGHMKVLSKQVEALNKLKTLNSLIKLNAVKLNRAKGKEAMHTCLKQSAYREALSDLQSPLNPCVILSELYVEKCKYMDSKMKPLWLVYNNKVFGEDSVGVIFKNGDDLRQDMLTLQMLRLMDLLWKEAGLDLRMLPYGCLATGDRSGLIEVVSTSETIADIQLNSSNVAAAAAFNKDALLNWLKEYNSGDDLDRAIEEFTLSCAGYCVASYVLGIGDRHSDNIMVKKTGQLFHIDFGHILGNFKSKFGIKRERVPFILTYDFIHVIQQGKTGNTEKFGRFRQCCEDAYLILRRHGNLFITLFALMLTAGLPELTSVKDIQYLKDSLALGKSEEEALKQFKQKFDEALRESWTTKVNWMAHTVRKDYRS
T1 sequence (P42336 with tags, fused parts or gaps limits assumed): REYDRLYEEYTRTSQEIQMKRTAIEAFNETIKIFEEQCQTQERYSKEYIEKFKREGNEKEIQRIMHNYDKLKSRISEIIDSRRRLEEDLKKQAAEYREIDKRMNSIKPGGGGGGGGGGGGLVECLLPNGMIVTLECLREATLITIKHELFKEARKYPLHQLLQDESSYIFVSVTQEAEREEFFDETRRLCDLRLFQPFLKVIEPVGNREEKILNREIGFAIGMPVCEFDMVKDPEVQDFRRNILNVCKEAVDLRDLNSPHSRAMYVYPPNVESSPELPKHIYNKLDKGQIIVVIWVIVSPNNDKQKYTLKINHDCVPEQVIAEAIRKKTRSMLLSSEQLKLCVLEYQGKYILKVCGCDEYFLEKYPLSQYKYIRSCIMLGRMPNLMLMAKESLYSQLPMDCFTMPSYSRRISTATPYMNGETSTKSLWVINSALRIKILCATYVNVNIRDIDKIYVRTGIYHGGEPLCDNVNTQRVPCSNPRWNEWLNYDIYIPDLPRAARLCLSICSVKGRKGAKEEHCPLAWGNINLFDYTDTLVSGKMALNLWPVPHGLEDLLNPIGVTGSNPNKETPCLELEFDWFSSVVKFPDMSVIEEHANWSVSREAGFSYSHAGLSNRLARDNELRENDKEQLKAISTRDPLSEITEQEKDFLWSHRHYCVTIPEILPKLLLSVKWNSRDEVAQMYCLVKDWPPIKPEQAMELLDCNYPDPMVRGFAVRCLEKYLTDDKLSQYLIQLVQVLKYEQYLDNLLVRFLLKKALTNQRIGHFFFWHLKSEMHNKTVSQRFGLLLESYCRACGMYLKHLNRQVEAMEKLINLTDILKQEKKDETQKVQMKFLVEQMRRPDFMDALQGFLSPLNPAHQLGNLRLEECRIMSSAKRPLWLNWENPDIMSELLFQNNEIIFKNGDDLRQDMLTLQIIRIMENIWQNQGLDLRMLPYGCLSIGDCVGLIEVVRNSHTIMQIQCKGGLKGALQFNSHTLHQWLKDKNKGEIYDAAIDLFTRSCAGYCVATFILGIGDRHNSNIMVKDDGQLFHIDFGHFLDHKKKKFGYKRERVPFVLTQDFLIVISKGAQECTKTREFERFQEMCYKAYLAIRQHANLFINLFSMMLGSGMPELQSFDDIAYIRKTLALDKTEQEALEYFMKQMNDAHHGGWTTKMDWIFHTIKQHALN

`Nc1ncc(-c2ccc3ncc(-c4ccc(F)nc4)n3n2)cc1C(F)(F)F` [Example 27, 5-[3-(6-Fluoro-pyridin-3-yl)-imidazo[1,2-b]pyridazin-6-yl]-3-trifluoromethyl-pyridin-2-ylamine]: in assay [1] (read-out: IC50 (μm) PI3K-alfa), the IC50 came to 1.4 nM.
As to `Nc1ncc(-c2ccc3ncc(-c4ccc(Nc5nc(-c6ccccc6)cs5)nc4)n3n2)cc1C(F)(F)F` [Example 28, 5-{3-[6-(4-Phenyl-thiazol-2-ylamino)-pyridin-3-yl]-imidazo[1,2-b]pyridazin-6-yl}-3-trifluoromethyl-pyridin-2-ylamine], the IC50 in assay [1] (read-out: IC50 (μm) PI3K-alfa) was found to be 12 nM.
On to `CC(C)N1CCC(Oc2ccc(-c3cnc4ccc(-c5cnc(N)c(C(F)(F)F)c5)nn34)cn2)CC1` [Example 29, 5-{3-[6-(1-Isopropyl-piperidin-4-yloxy)-pyridin-3-yl]-imidazo[1,2-b]pyridazin-6-yl}-3-trifluoromethyl-pyridin-2-ylamine], for which the IC50 in assay [1] (read-out: IC50 (μm) PI3K-alfa) was found to be 7 nM.
With `Nc1ncc(-c2ccc3ncc(-c4ccc(NCc5ccccc5)nc4)n3n2)cc1C(F)(F)F` [Example 30, 5-[3-(6-Benzylamino-pyridin-3-yl)-imidazo[1,2-b]pyridazin-6-yl]-3-trifluoro-methyl-pyridin-2-ylamine], the IC50 in assay [1] (read-out: IC50 (μm) PI3K-alfa) came out at 2.3 nM.
As for `Nc1ncc(-c2ccc3ncc(-c4ccc(N5CCOCC5)nc4)n3n2)cc1C(F)(F)F` [Example 31, 5-[3-(6-Morpholin-4-yl-pyridin-3-yl)-imidazo[1,2-b]pyridazin-6-yl]-3-trifluoromethyl-pyridin-2-ylamine], the IC50 in assay [1] (read-out: IC50 (μm) PI3K-alfa) stood at 4.5 nM.
Same read-out and setting: in the case of `Nc1ncc(-c2ccc3ncc(-c4ccc(O)nc4)n3n2)cc1C(F)(F)F` [Example 32, 5-[6-(6-Amino-5-trifluoromethyl-pyridin-3-yl)-imidazo[1,2-b]pyridazin-3-yl]-pyridin-2-ol] it was 4.9 nM.
In the case of `CCS(=O)(=O)c1ccc(-c2cnc3ccc(-c4cnc(N)c(C(F)(F)F)c4)nn23)cc1` [Example 33, 5-[3-(4-Ethanesulfonyl-phenyl)-imidazo[1,2-b]pyridazin-6-yl]-3-trifluoro-methyl-pyridin-2-ylamine], the IC50 turned out to be 63 nM in assay [1] (setting [5]), 240 nM in assay [2], 103 nM in assay [3] and 1220 nM in assay [4].
In the same order, the values of `COc1ccc(-c2ccc3ncc(-c4ccc(N)nc4)n3n2)cc1OC` [Example 34, 5-[6-(3,4-Dimethoxy-phenyl)-imidazo [1,2-b]pyridazin-3-yl]-pyridin-2-ylamine] are 103 nM, 718 nM, 143 nM and 1310 nM.
Take `CNS(=O)(=O)c1ccc(-c2cnc3ccc(-c4cnc(N)c(C(F)(F)F)c4)nn23)cc1` [Example 35, 4-[6-(6-Amino-5-trifluoro-methyl-pyridin-3-yl)-imidazo [1,2-b]pyridazin-3-yl]-N-methyl-benzene-sulfon-amide]: the IC50 is 122 nM in assay [1] (setting [5]), 186 nM in assay [2], 171 nM in assay [3] and > 9100 nM in assay [4].
`COc1cc(-c2cnc3ccc(-c4cnc(N)c(C(F)(F)F)c4)nn23)ccc1OCCCNC(=O)OC(C)(C)C` [Example 36, (3-{4-[6-(6-Amino-5-trifluoro-methyl-pyridin-3-yl)-imidazo [1,2-b]pyridazin-3-yl]-2-methoxy-phenoxy}-propyl)-carbamic acid tert-butyl ester]: the IC50 is 255 nM in assay [1] (setting [5]), 2160 nM in assay [2], 328 nM in assay [3] and 4830 nM in assay [4].
Consider `COc1cc(-c2cnc3ccc(-c4cnc(N)c(C(F)(F)F)c4)nn23)ccc1OCCCN` [Example 37, 5-{3-[4-(3-Amino-propoxy)-3-methoxy-phenyl]-imidazo[1,2-b]pyridazin-6-yl}-3-trifluoro-methyl-pyridin-2-ylamine], for which the IC50 in assay [1] (setting [5]) is 110 nM; in assay [2], 54 nM; in assay [3] it was 72 nM; in assay [4], 1120 nM.
In the case of `COc1ccc(-c2ccc3ncc(-c4cnc(N)cn4)n3n2)cc1OC` [Example 38, 5-[6-(3,4-Dimethoxy-phenyl)-imidazo [1,2-b]pyridazin-3-yl]-pyrazin-2-ylamine], the IC50 in assay [1] (setting [5]) came to 92 nM; in assay [2] it was 226 nM; in assay [3], 121 nM; in assay [4], 1690 nM.
For the molecule `Nc1ccc(-c2cnc3ccc(-c4cnc(N)c(C(F)(F)F)c4)nn23)cn1` [Example 39, 5-{3-(6-Amino-pyridin-3-yl)-imidazo [1,2-b]pyridazin-6-yl]-3-trifluoro-methyl-pyridin-2-ylamine], the IC50 in assay [1] (setting [5]) came to 54 nM; in assay [2], 19 nM; in assay [3], 40 nM; in assay [4], 1290 nM.
`CC(C)(C)OC(=O)NCCCOc1ccc(-c2cnc3ccc(-c4cnc(N)c(C(F)(F)F)c4)nn23)cc1OC(F)(F)F` [Example 40, (3-{4-[6-(6-Amino-5-trifluoro-methyl-pyridin-3-yl)-imidazo [1,2-b]pyridazin-3-yl]-2-trifluoro-methoxy-phenoxy}-propyl)-carbamic acid tert-butylester]: the IC50 in assay [1] (setting [5]) is 6900 nM; in assay [2], > 9100 nM; in assay [3] it was > 9100 nM; in assay [4] it was > 9100 nM.
`Nc1ncc(-c2ccc3ncc(-c4cnc5[nH]ccc5c4)n3n2)cc1C(F)(F)F` [Example 41, 5-[3-(1H- Pyrrolo [2,3-b]pyridin-5-yl)-imidazo [1,2-b]pyridazin-6-yl]-3-trifluoro-methyl-pyridin-2-ylamine]: the IC50 amounted to 264 nM in assay [1] (setting [5]), 212 nM in assay [2], 207 nM in assay [3] and 1600 nM in assay [4].
The like results for `COc1ccc(-c2cnc3ccc(-c4cnc5[nH]ccc5c4)nn23)cc1OC` [Example 42, 3-(3,4-Dimethoxy-phenyl)-6-(1H-pyrrolo[2,3-b]pyridin-5-yl)-imidazo [1,2-b] pyridazine] were, in that order, 635 nM, > 9100 nM, 624 nM and > 9100 nM.
For `CC(C)(C)OC(=O)NCCCOc1ccc(-c2ccc3ncc(-c4cnc(N)c(C(F)(F)F)c4)n3n2)cc1OC(F)(F)F` [Example 55], the results for the IC50 in assay [1] (setting [5]), in assay [2] and in assay [3] were 6120 nM, > 9100 nM and > 9100 nM, respectively.
With `Nc1ncc(-c2cnc3ccc(-c4cnc(N)c(C(F)(F)F)c4)nn23)cn1` [Example 79, 5-[6-(6-Amino-5-trifluoro-methyl-pyridin-3-yl)-imidazo [1,2-b]pyridazin-3-yl]-pyrimidin-2-ylamine], the IC50 in assay [1] (setting [5]) came out at 15 nM; in assay [2], 4 nM; in assay [3], 9 nM.

Source of the values: US20100311729A1, “Substituted imidazopyridazines and pyrrolopyrimidines as lipid kinase inhibitors” (priority 2007, published 2010).
